From patent US11369565B2, “Amino-pyrimidine skeletal muscle modulators” (Cytokinetics, Inc., priority 2010, dated 2022) come the findings set out here.

The test system of this experiment is rabbit skeletal myofibrils (approximately 90% fast fibers). The experiment can be described thus: Activation of fast skeletal myofibrils (PUMA coupled-enzyme ATPase assay at pCa25). The format is biochemical. The settings on record: concentration at which the compound increased the enzymatic activity by 40%; calcium at pCa25; PM12 buffer pH 6.8. In a few lines:
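In pH 6.8 PM12 buffer (12 mM Pipes, 2 mM MgCl2, 1 mM DTT), ADP from myosin regenerated via pyruvate kinase/lactate dehydrogenase, with absorbance change at 340 nm from NADH oxidation as read-out. Calcium set at pCa25; Triton-washed rabbit skeletal myofibrils (about 90% fast fibres) used.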
`Nc1nc(NC[C@]2(c3ncccc3F)C[C@H](F)C2)ncc1-c1ccccc1` [(4-amino-5-phenylpyrimidin-2-yl){[3-fluoro-1-(3-fluoro(2-pyridyl))cyclobutyl)]methyl} amine]: the “Mean AC1.4” value is on record as “B (B=1-10 uM)”.

For the molecule `CC(C)(Nc1ncc(-c2ccc3[nH]ncc3c2)cn1)c1ncccc1Cl` [(5-(1H-indazol-5-yl)]pyrimidin-2-yl)[1-(3-chloro(2-pyridyl))-isopropyl]amine], the “Mean AC1.4” value was “A (A=<1 uM)”.

Turning to `Fc1cccnc1C1(Nc2ncc3cc(Br)ccc3n2)CCC1` [(6-bromoquinazolin-2-yl)[(3-fluoro(2-pyridyl))cyclobutyl]amine], the “Mean AC1.4” value is recorded as “D (D=>20 uM)”.

Turning to `Cn1nc(-c2cnc(NC(C)(C)c3ncccc3Cl)nc2)cc1C(N)=O` [3-(2-{[1-(3-chloro(2-pyridyl))-isopropyl]amino}pyrimidin-5-yl)-1-methylpyrazole-5-carboxamide], the “Mean AC1.4” value was “D (D=>20 uM)”.

In the case of `Cc1cc(NC(=O)c2cnc(NCC3(c4ncccc4F)CCC3)nc2)[nH]n1` [[2-({[(3-fluoro(2-pyridyl))cyclobutyl]methyl}amino)pyrimidin-5-yl]-N-(3-methylpyrazol-5-yl)carboxamide], the “Mean AC1.4” value is recorded as “D (D=>20 uM)”.

In the case of `COc1cccnc1C(C)(C)Nc1ncc(-c2cc(C(N)=O)ccc2F)cn1` [4-fluoro-3-(2-{[1-(3-methoxy(2-pyridyl))-isopropyl]amino}pyrimidin-5-yl)benzamide], the “Mean AC1.4” value is listed as “C (C=10-20 uM)”.

Take `CC(C)(Nc1ncc(C(N)=O)cn1)c1ncccc1Cl` [2-{[1-(3-chloro(2-pyridyl))-isopropyl]amino}pyrimidine-5-carboxamide]: the “Mean AC1.4” value is given as “D (D=>20 uM)”.

With `Nc1ccnn1C(=O)c1cnc(NCC2(c3ncccc3F)CCC2)nc1` [5-aminopyrazolyl 2-({[(3-fluoro(2-pyridyl))cyclobutyl]methyl}amino) pyrimidin-5-yl ketone], the “Mean AC1.4” value is given as “C (C=10-20 uM)”.

Regarding `CC(C)(CNc1ncc(-c2cncc(C#N)c2)cn1)c1ccc(F)cc1` [5-(2-{[2-(4-fluorophenyl)-2-methylpropyl]amino}pyrimidin-5-yl)pyridine-3-carbonitrile], the “Mean AC1.4” value was “B (B=1-10 uM)”.

Turning to `NC(=O)c1ccc(=O)n(-c2cnc(NC[C@]3(c4ncccc4F)C[C@H](F)C3)nc2)c1` [1-[2-({[3-fluoro-1-(3-fluoro(2-pyridyl))cyclobutyl]methyl)amino)pyrimidin-5-yl]-6-oxohydropyridine-3-carboxamide], the “Mean AC1.4” value is “D (D=>20 uM)”.

Regarding `CCOC(=O)c1noc(-c2cnc(NC(C)(C)c3ncccc3Cl)nc2)n1` [ethyl 5-(2-{[1-(3-chloro(2-pyridyl))-isopropyl]amino}pyrimidin-5-yl)-1,2,4-oxadiazole-3-carboxylate], the “Mean AC1.4” value is recorded as “D (D=>20 uM)”.

On to `CC(C)(Nc1ncc(Br)cn1)c1ccc(F)cc1` [(5-bromopyrimidin-2-yl)[1-(4-fluorophenyl)-isopropyl]amine], for which the “Mean AC1.4” value is “C (C=10-20 uM)”.

As to `CC(C)(Nc1ncc(-c2ncc(C(N)=O)s2)cn1)c1ncccc1F` [2-(2-{[1-(3-fluoro(2-pyridyl))-isopropyl]amino}pyrimidin-5-yl)-1,3-thiazole-5-carboxamide], the “Mean AC1.4” value is given as “D (D=>20 uM)”.

For the molecule `O=C(Nc1ccccc1)c1ccnc(NCC2(c3ncccc3F)CCC2)n1` [[2-({[(3-fluoro(2-pyridyl))cyclobutyl]methyl}amino)pyrimidin-4-yl]-N-benzamide], the “Mean AC1.4” value is reported as “D (D=>20 uM)”.

Regarding `NC(=O)c1csc(-c2cnc(NCC3(c4ncccc4F)CCC3)nc2)n1` [2-[2-({[(3-fluoro-2-pyridyl)cyclobutyl]methyl}amino)pyrimidin-5-yl]-1,3-thiazole-4-carboxamide], the “Mean AC1.4” value is “B (B=1-10 uM)”.

On to `NC(=O)c1ccccc1-c1cnc(NC[C@]2(c3ncccc3F)C[C@H](F)C2)nc1` [2-[2-({[3-fluoro-1-(3-fluoro(2-pyridyl))cyclobutyl]methyl}amino)pyrimidin-5-yl]benzamide], for which the “Mean AC1.4” value is on record as “C (C=10-20 uM)”.

Take `CC(C)(Nc1ncc(-c2cnc3c(c2)NC(=O)C3)cn1)c1ncccc1Cl` [6-(2-{[1-(3-chloro(2-pyridyl))-isopropyl]amino}pyrimidin-5-yl)-2-pyrrolino[3,2-b]pyridin-2-one]: the “Mean AC1.4” value is listed as “D (D=>20 uM)”.

Consider `N#Cc1cccc(-c2cnc(NCC3(c4ncccc4Cl)CCC3)nc2)c1` [3-[2-({[(3-chloro-2-pyridyl)cyclobutyl]methyl}amino)pyrimidin-5-yl]benzenecarbonitrile], for which the “Mean AC1.4” value was “A (A=<1 uM)”.

On to `Fc1ccc(C2(Nc3ncc4cn[nH]c4n3)CCC2)cc1` [[(4-fluorophenyl)cyclobutyl]pyrazolo[5,4-d]pyrimidin-6-ylamine], for which the “Mean AC1.4” value is recorded as “D (D=>20 uM)”.

For `CC(C)(c1ncccc1S(C)(=O)=O)N(O)c1ncc(-c2cccc(C(N)=O)c2)cn1` [3-[2-({1-methyl-1-[3-(methylsulfonyl)(2-pyridyl)]ethyl}(hydroxyamino))pyrimidin-5-yl]benzamide], the “Mean AC1.4” value was “D (D=>20 uM)”.

As to `CC(C)(Nc1ncc(-c2ncc(CNC(=O)c3cnc(O)[nH]3)s2)cn1)c1ncccc1F` [N-{[2-(2-{[1-(3-fluoro(2-pyridyl))-isopropyl}amino}pyrimidin-5-yl)(1,3-thiazol-5-yl)]methyl}(2-hydroxyimidazol-5-yl)carboxamide], the “Mean AC1.4” value is listed as “C (C=10-20 uM)”.

On to `CC(C)(Nc1ncc(-c2cnn(CC(N)=O)c2)cn1)c1ncccc1Cl` [2-[4-(2-{[1-(3-chloro(2-pyridyl))-isopropyl]amino}pyrimidin-5-yl)pyrazolyl]acetamide], for which the “Mean AC1.4” value is recorded as “D (D=>20 uM)”.

Consider `CC(C)(C)Nc1ncc(-c2ccc3[nH]nc(N)c3c2)cn1` [[5-(3-amino(1H-indazol-5-yl))pyrimidin-2-yl]tert-butyl)amine], for which the “Mean AC1.4” value is on record as “B (B=1-10 uM)”.

Turning to `O=C(O)c1cnc(NC2(c3ccc(F)cc3)CCC2)nc1C(F)(F)F` [2-{[(4-fluorophenyl)cyclobutyl]amino}-4-(trifluoromethyl)pyrimidine-5-carboxylic acid], the “Mean AC1.4” value was “D (D=>20 uM)”.

`CC(C)(Nc1ncc(-c2ncno2)cn1)c1ncccc1Cl` [[1-(3-chloro(2-pyridyl))-isopropyl](5-(1,2,4-oxadiazol-5-yl)pyrimidin-2-yl)amine]: the “Mean AC1.4” value is “D (D=>20 uM)”.

Take `CC(C)(Nc1ncc(-c2nc(C(=O)O)cs2)cn1)c1ncccc1Cl` [2-(2-{[1-(3-chloro(2-pyridyl))-isopropyl]amino}pyrimidin-5-yl)-1,3-thiazole-4-carboxylic acid]: the “Mean AC1.4” value was “D (D=>20 uM)”.

Turning to `Nc1ncc(-c2cnc(NC[C@]3(c4ncccc4F)C[C@H](F)C3)nc2)cn1` [[5-(2-aminopyrimidin-5-yl)]pyrimidin-2-yl]{[3-fluoro-1-(3-fluoro(2-pyridyl))cyclobutyl]methyl}amine], the “Mean AC1.4” value is listed as “B (B=1-10 uM)”.

For `NC(=O)c1cnc(NC2(c3ccc(F)cc3)CCC2)nc1C(F)(F)F` [2-{[(4-fluorophenyl)cyclobutyl]amino}-4-(trifluoromethyl)pyrimidine-5-carboxamide], the “Mean AC1.4” value is “B (B=1-10 uM)”.

Turning to `O=C(Nc1cnc(NCC2(c3ncccc3F)CCC2)nc1)Nc1nccs1` [{[2-({[(3-fluoro(2-pyridyl))cyclobutyl]methyl}amino)pyrimidin-5-yl]amino}-N-(1,3-thiazol-2-yl)carboxamide], the “Mean AC1.4” value was “B (B=1-10 uM)”.
